Measurements as given in patent US11578061B2, “Inhibitors of LRRK2 kinase” (Halia Therapeutics, Inc., priority 2021, dated 2023).

These molecules were tested against recombinant human LRRK2 (catalytic domain only [amino acids 970-2527], GST-tagged) (Homo sapiens (Human), UniProt Q5S007) (assay: LRRK2 Enzymatic Assay). Conditions: LRRKtide substrate, [32P]-ATP.
Assay type: biochemical
Outline: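 Radiometric P81 filter-binding read-out of [32P]-ATP transfer to LRRKtide (20 μM) by 30 nM GST-LRRK2 970-2527, 2 h at room temperature after 20 min compound preincubation (10 μM–0.5 nM, 1% DMSO). IC50 derived from % remaining activity versus DMSO.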

Sequence of recombinant human LRRK2 (catalytic domain only [amino acids 970-2527], GST-tagged) (Q5S007 970-2527): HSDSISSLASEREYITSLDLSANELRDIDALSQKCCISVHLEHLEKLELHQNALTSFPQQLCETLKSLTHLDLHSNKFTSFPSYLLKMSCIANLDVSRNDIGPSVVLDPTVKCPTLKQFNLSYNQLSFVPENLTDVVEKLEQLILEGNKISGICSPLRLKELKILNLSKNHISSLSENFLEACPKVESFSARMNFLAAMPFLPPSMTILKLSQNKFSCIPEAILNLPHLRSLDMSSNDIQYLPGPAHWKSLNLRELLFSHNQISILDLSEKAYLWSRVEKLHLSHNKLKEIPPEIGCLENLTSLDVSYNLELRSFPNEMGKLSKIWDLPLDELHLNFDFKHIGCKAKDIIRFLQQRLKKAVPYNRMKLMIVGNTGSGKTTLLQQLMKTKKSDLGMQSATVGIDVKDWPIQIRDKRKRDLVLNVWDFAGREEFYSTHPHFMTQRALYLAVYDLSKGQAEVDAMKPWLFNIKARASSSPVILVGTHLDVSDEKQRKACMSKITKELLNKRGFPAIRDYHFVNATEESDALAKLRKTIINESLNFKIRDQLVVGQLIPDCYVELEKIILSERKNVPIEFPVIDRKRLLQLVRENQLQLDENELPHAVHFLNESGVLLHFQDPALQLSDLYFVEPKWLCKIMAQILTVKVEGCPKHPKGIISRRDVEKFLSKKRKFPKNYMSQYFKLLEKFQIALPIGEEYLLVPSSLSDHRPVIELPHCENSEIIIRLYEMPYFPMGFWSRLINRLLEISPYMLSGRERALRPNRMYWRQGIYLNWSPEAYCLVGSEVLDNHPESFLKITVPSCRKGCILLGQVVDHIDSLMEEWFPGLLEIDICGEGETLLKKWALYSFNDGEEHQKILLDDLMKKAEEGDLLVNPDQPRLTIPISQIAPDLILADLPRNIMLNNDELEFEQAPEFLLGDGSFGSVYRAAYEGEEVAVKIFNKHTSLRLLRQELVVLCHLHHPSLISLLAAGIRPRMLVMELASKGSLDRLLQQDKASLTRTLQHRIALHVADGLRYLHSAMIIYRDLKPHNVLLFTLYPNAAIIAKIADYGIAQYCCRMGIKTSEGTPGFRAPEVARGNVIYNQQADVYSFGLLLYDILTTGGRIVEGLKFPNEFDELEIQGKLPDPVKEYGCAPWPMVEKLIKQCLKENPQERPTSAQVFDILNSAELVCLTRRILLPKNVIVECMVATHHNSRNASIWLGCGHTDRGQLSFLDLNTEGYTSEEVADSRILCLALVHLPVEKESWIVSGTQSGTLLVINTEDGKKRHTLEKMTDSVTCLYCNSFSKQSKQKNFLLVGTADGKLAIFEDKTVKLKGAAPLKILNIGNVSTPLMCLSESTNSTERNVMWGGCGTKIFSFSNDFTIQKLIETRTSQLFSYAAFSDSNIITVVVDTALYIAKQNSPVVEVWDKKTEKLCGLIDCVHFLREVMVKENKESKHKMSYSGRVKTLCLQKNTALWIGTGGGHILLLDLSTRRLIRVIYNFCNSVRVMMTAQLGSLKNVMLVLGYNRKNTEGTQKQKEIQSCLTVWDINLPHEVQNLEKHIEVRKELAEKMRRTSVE

Row | Compound | IC50 [nM]
1 | OC1(C(F)(F)F)CCC(COc2nc(Nc3ccc(N4CCOCC4)cc3)ncc2F)CC1 (stereo not shown) [Example 260, 4-(((5-fluoro-2-((4-morpholinophenyl)amino)pyrimidin-4-yl)oxy)methyl)-1-(trifluoromethyl)cyclohexan-1-ol] | 50 to 200
2 | Cc1nn(C(C)(C)C#N)cc1Nc1ncc(F)c(OCC2CCC(O)(C(F)(F)F)CC2)n1 (stereo not shown) [Example 262, 2-(4-((5-fluoro-4-((4-hydroxy-4-(trifluoromethyl)cyclohexyl)methoxy)pyrimidin-2-yl)amino)-3-methyl-1H-pyrazol-1-yl)-2-methylpropanenitrile] | 50 to 200
3 | Cc1nc(Nc2ccc(N3CCOCC3)cc2)nc(OC[C@H]2CC[C@H](O)CC2)c1F [Example 265, (1R,4R)-4-(((5-fluoro-6-methyl-2-((4-morpholinophenyl)amino)pyrimidin-4-yl)oxy)methyl)cyclohexan-1-ol] | > 400
4 | Cc1nc(Nc2ccc(N3C[C@@H](C)O[C@@H](C)C3)cc2)nc(OC[C@H]2CC[C@H](O)CC2)c1F [Example 266, (1R,4R)-4-(((2-((4-((2S,6R)-2,6-dimethylmorpholino)phenyl)amino)-5-fluoro-6-methylpyrimidin-4-yl)oxy)methyl)cyclohexan-1-ol] | > 400
5 | Cc1nn(C(C)(C)C#N)cc1Nc1nc(C)c(F)c(OC[C@H]2CC[C@H](O)CC2)n1 [Example 267, 2-(4-((5-fluoro-4-(((1R,4R)-4-hydroxycyclohexyl)methoxy)-6-methylpyrimidin-2-yl)amino)-3-methyl-1H-pyrazol-1-yl)-2-methylpropanenitrile] | > 400
6 | Fc1cnc(Nc2ccc(N3CCOCC3)cc2)nc1OCC1CCC(F)(F)CC1 [Example 268, 4-((4,4-difluorocyclohexyl)methoxy)-5-fluoro-N-(4-morpholinophenyl)pyrimidin-2-amine] | 50 to 200
7 | Cc1nn(C(C)(C)C#N)cc1Nc1ncc(F)c(OCC2CCC(F)(F)CC2)n1 [Example 270, 2-(4-((4-((4,4-difluorocyclohexyl)methoxy)-5-fluoropyrimidin-2-yl)amino)-3-methyl-1H-pyrazol-1-yl)-2-methylpropanenitrile] | 50 to 200
8 | CCO[C@H]1CC[C@@H](COc2nc(Nc3ccc(N4CCOCC4)cc3)ncc2F)CC1 [Example 275, 4-(((1S,4S)-4-ethoxycyclohexyl)methoxy)-5-fluoro-N-(4-morpholinophenyl)pyrimidin-2-amine] | 50 to 200
9 | CCO[C@H]1CC[C@@H](COc2nc(Nc3cn(C(C)(C)C#N)nc3C)ncc2F)CC1 [Example 277, 2-(4-((4-(((1s,4s)-4-ethoxycyclohexyl)methoxy)-5-fluoropyrimidin-2-yl)amino)-3-methyl-1H-pyrazol-1-yl)-2-methylpropanenitrile] | < 50
10 | C[C@@H]1CN(c2ccc(Nc3ncc(F)c(OCC4CCC(OC(F)(F)F)CC4)n3)cc2)C[C@H](C)O1 (stereo partly drawn) [Example 283, N-(4-((2S,6R)-2,6-dimethylmorpholino)phenyl)-5-fluoro-4-((4-(trifluoromethoxy)cyclohexyl)methoxy)pyrimidin-2-amine] | > 400
11 | Cc1nn(C(C)(C)C#N)cc1Nc1ncc(F)c(OC[C@H]2CC[C@H](OC(F)F)CC2)n1 [Example 286, 2-(4-((4-(((1R,4R)-4-(difluoromethoxy)cyclohexyl)methoxy)-5-fluoropyrimidin-2-yl)amino)-3-methyl-1H-pyrazol-1-yl)-2-methylpropanenitrile] | 50 to 200
12 | Cc1nn(C(C)(C)C#N)cc1Nc1ncc(F)c(OCC2CS(=O)(=O)C2)n1 [Example 289, 2-(4-((4-((1,1-dioxidothietan-3-yl)methoxy)-5-fluoropyrimidin-2-yl)amino)-3-methyl-1H-pyrazol-1-yl)-2-methylpropanenitrile] | > 400

More lines, now with the values ahead:

Row | IC50 [nM] | Compound
13 | 50 to 200 | C[C@@H]1CN(c2ccc(Nc3ncc(F)c(OCC4CCC(O)(C(F)(F)F)CC4)n3)cc2)C[C@H](C)O1 (stereo partly drawn) [Example 261, 4-(((2-((4-((2S,6R)-2,6-dimethylmorpholino)phenyl)amino)-5-fluoropyrimidin-4-yl)oxy)methyl)-1-(trifluoromethyl)cyclohexan-1-ol]
14 | 200 to 400 | C[C@@H]1CN(c2ccc(Nc3ncc(F)c(OCC4CCC(F)(F)CC4)n3)cc2)C[C@H](C)O1 [Example 269, 4-((4,4-difluorocyclohexyl)methoxy)-N-(4-((2R,6S)-2,6-dimethylmorpholino)phenyl)-5-fluoropyrimidin-2-amine]
15 | 50 to 200 | C[C@@H]1CN(c2ccc(Nc3ncc(F)c(OCC4CCC(F)(F)C4)n3)cc2)C[C@H](C)O1 (stereo partly drawn) [Example 271, 4-((3,3-difluorocyclopentyl)methoxy)-N-(4-((2S,6R)-2,6-dimethylmorpholino)phenyl)-5-fluoropyrimidin-2-amine]
16 | 50 to 200 | CCO[C@H]1CC[C@@H](COc2nc(Nc3ccc(N4C[C@@H](C)O[C@@H](C)C4)cc3)ncc2F)CC1 [Example 276, N-(4-((2S,6R)-2,6-dimethylmorpholino)phenyl)-4-(((1S,4S)-4-ethoxycyclohexyl)methoxy)-5-fluoropyrimidin-2-amine]
17 | 200 to 400 | C[C@@H]1CN(c2ccc(Nc3ncc(F)c(OC[C@H]4CC[C@H](OC(F)F)CC4)n3)cc2)C[C@H](C)O1 [Example 285, 4-(((1R,4R)-4-(difluoromethoxy)cyclohexyl)methoxy)-N-(4-((2S,6R)-2,6-dimethylmorpholino)phenyl)-5-fluoropyrimidin-2-amine]
18 | > 400 | O=S1(=O)CCC(COc2nc(Nc3ccc(N4CCOCC4)cc3)ncc2F)CC1 [Example 287, 4-(((5-fluoro-2-((4-morpholinophenyl)amino)pyrimidin-4-yl)oxy)methyl)tetrahydro-2H-thiopyran 1,1-dioxide]
19 | > 400 | C[C@@H]1CN(c2ccc(Nc3ncc(F)c(OCC4CCS(=O)(=O)CC4)n3)cc2)C[C@H](C)O1 [Example 288, 4-(((2-((4-((2R,6S)-2,6-dimethylmorpholino)phenyl)amino)-5-fluoropyrimidin-4-yl)oxy)methyl)tetrahydro-2H-thiopyran 1,1-dioxide]
